Laboratory results: patent publication US11254671B2, “Chemical compounds” (GLAXOSMITHKLINE INTELLECTUAL PROPERTY DEVELOPMENT LIMITED, priority 2017, dated 2022)

Tested on: type I collagen deposition in primary lung fibroblasts
Experiment: Highthroughput type I collagen deposition (scar-in-a-jar) high content screening assay
Format: cell-based
Conditions: Homo sapiens, Primary lung fibroblast, 72 h, human pulmonary fibroblasts, TGF-β 1 ng/ml, Ficoll crowding, mean of multiple experiments, read-out: mean pIC50, inhibition of type I collagen deposition (converted)
Protocol: Example 53 Highthroughput Type I Collagen Deposition (Scar-in-a-Jar) High Content Screening Assay
Highthroughput, cellular type I collagen deposition was measured by adapting a published method; scar-in-a-jar (Chen et al., 2009) to primary lung fibroblasts derived from human tissue and combining with high content analysis to permit fluorescent quantification of collagen deposited in the extracellular matrix (ECM). The human biological samples were sourced ethically and their research use was in accord with the terms of the informed consents
Test compounds were dissolved in 100% DMSO to give 10 mM (stocks) and further diluted to give half log dilutions to generate an 11 point concentration response curve. 1 ul was transferred to 384-well plates (Greiner Group, Kremsmunster, Austria, Catalogue No Greine 781280r).
Human pulmonary fibroblasts were maintained in DMEM media (Gibco, Catalogue No 21969) supplemented with 4 mM L-glutamine (Gibco Catalogue No 25030-024) and 10% heat inactivated FBS (Gibco, Catalogue No 10099-141) at 37° C. in 10% CO2. Cells were harvested and resuspended at 4×10^6 cells/ml in a T175 cell culture flask (BD Falcom, Catalogue No: 353112) containing 50 mL of culture media. After 4 days 37° C. in 10% CO2, cells were harvested and seeded at 4000 cells per well (50 μL/well) into 384-well plates (BD Falcon, Catalogue No 353962Greiner) in assay media (0.4% heat inactivated FBS, 4 mM L-glutamine). Plates were sealed with breathable seals (Sigma, Catalogue No. BEM-1). Assay plates were incubated for 72 h at 37° C. in 10% CO2.
Assay media was supplemented with 112.5 mg/ml Ficoll 70 (Sigma, Catalogue No F2878), 75 mg/ml Ficoll 400 (Sigma, Catalogue No F4375) and 50 μg/ml ascorbic acid (Sigma, Catalogue No A8960). 30 μL assay media were added to 1 μl compound (37 μM compound concentration in 1% DMSO). Diluted compounds (10 μL) were transferred to plates containing cells and incubated for 3 h at 37° C. in 10% CO2. Transforming growth factor (TGF)-β (R&D systems, Catalogue No 100-B/CF) was reconstituted to give 10 μg/mL (stock) and further diluted in assay media containing Ficoll and ascorbic acid (1 in 3333). TGF-β was added to cell plates (1 ng/ml final) and cells incubated for 72 h at 37° C. in 10% CO2.
Media was aspirated from cells and 30 μL/well 100% ice-cold methanol added and incubated at RT for 5 min to fix cells. Methanol was aspirated and cells washed with PBS (3×). To block and permeabilise, cells were incubated with PBS containing 1% BSA and 0.1% Triton X 100 for 20 min, followed by PBS wash (3×). Cells were incubated with mouse anti human type I collagen monoclonal antibody (Sigma, Catalogue No C2456) diluted 1:1000 in PBS for 24 h at 4° C. Cells were washed with PBS containing 0.1% Tween-20 (3×) and incubated with secondary alexa fluor 488 goat-anti-mouse antibody (Invitrogen, Catalogue No A11001, 1 in 500 in PBS) and Hoechst 33342 (Sigma, Catalogue No H21492), 1 in 1000 in PBS) for 1 h at RT, prior to washing with PBS containing 0.1% Tween (×4).
Type I collagen immunoreactivity was detected using the INCell 2000 Analyzer (GE Healthcare, INcell 2000) set to excitation and emission wavelengths for DAPI and FITC with laser focus and exposure adjusted to appropriate levels. Images were imported and analysed using Columbus software (Perkin Elmer) and computational algorithms to quantify “total collagen area” and “cell count”.
Data analysis was performed by determining % inhibition values for test compounds relative to the minimum (media only) and maximum responses (TGF-βstimulation) with non-linear regression analysis to determine IC50 values for test compounds.

Compound | IC50 [nM]
CNCc1cc2nc(-c3cc(C(C)(C)S(C)(=O)=O)cc(N4[C@@H]5CC[C@H]4COC5)n3)ccc2[nH]1 [Example 3, 1-(5-(6-((1R,5S)-3-oxa-8-azabicyclo[3.2.1]octan-8-yl)-4-(2-(methylsulfonyl)propan-2-yl)pyridin-2-yl)-1H-pyrrolo[3,2-b]pyridin-2-yl)-N-methylmethanamine] | 39.8 to 1000
CC[C@H]1COCCN1c1cc(C(C)(C)S(C)(=O)=O)cc(-c2ccc3[nH]c(CO)cc3n2)n1 [Example 32] | 39.8 to 1000
CCS(=O)(=O)C(C)(C)c1cc(-c2ccc3[nH]c(CNC)cc3n2)nc(N2CCOC[C@@H]2C)c1 [Example 7, (S)-1-(5-(4-(2-(ethylsulfonyl)propan-2-yl)-6-(3-methylmorpholino)pyridin-2-yl)-1H-pyrrolo[3,2-b]pyridin-2-yl)-N-methylmethanamine] | 39.8 to 1000
CC[C@H]1COCCN1c1cc(C2(S(=O)(=O)N(C)C)CCOCC2)cc(-c2ccc3[nH]c(CNC)cc3n2)n1 [Example 31, 4-{2-[(3S)-3-ethylmorpholin-4-yl]-6-{2-[(methylamino)methyl]-1H-pyrrolo[3,2-b]pyridin-5-yl}pyridin-4-yl}-N,N-dimethyloxane-4-sulfonamide] | 39.8 to 100
CC[C@H]1COCCN1c1cc(C(C)(C)S(=O)(=O)C2CC2)cc(-c2ccc3[nH]c(CNC)cc3n2)n1 [Example 9, (S)-1-(5-(4-(2-(cyclopropylsulfonyl)propan-2-yl)-6-(3-ethylmorpholino)pyridin-2-yl)-1H-pyrrolo[3,2-b]pyridin-2-yl)-N-methylmethanamine] | 39.8 to 100
CC[C@H]1COCCN1c1cc(CS(=O)(=O)N(C)C)cc(-c2ccc3[nH]c(CO)cc3n2)n1 [Example 35, 1-{2-[(3S)-3-ethylmorpholin-4-yl]-6-[2-(hydroxymethyl)-1H-pyrrolo[3,2-b]pyridin-5-yl]pyridin-4-yl}-N,N-dimethylmethanesulfonamide] | 39.8 to 1000
CC[C@H]1COCCN1c1cc(C(C)(C)S(N)(=O)=O)cc(-c2ccc3[nH]c(CNC)cc3n2)n1 [Example 28, 2-{2-[(3S)-3-ethylmorpholin-4-yl]-6-{2-[(methylamino)methyl]-1H-pyrrolo[3,2-b]pyridin-5-yl}pyridin-4-yl}propane-2-sulfonamide] | 39.8 to 1000
CC[C@H]1COCCN1c1cc(CS(=O)(=O)N(C)C)cc(-c2ccc3[nH]c(CNC)cc3n2)n1 [Example 17, (S)-1-(2-(3-ethylmorpholino)-6-(2-((methylamino)methyl)-1H-pyrrolo[3,2-b]pyridin-5-yl)pyridin-4-yl)-N,N-dimethylmethanesulfonamide] | 39.8 to 1000
CNCc1cc2nc(-c3cc(CS(C)(=O)=O)cc(N4CCOC[C@@H]4C)n3)ccc2[nH]1 [Example 6, (S)—N-methyl-1-(5-(6-(3-methylmorpholino)-4-((methylsulfonyl)methyl)pyridin-2-yl)-1H-pyrrolo[3,2-b]pyridin-2-yl)methanamine] | 39.8 to 1000
CC[C@H]1COCCN1c1cc(CS(=O)(=O)NC)cc(-c2ccc3[nH]c(CNC)cc3n2)n1 [Example 30, 1-{2-[(3S)-3-ethylmorpholin-4-yl]-6-{2-[(methylamino)methyl]-1H-pyrrolo[3,2-b]pyridin-5-yl}pyridin-4-yl}-N-methylmethanesulfonamide] | 39.8 to 1000
CC[C@H]1COCCN1c1cc(C(C)(C)S(C)(=O)=O)cc(-c2ccc3[nH]c(CN)cc3n2)n1 [Example 21, 1-(5-{6-[(3S)-3-ethylmorpholin-4-yl]-4-(2-methanesulfonylpropan-2-yl)pyridin-2-yl}-1H-pyrrolo[3,2-b]pyridin-2-yl)methanamine] | 39.8 to 1000
CC[C@H]1COCCN1c1cc(CS(C)(=O)=O)cc(-c2ccc3[nH]c(CNC)cc3n2)n1 [Example 13, (S)-1-(5-(6-(3-ethylmorpholino)-4-((methylsulfonyl)methyl)pyridin-2-yl)-1H-pyrrolo[3,2-b]pyridin-2-yl)-N-methylmethanamine] | 39.8 to 1000
CNCc1cc2nc(-c3cc(C(F)(F)S(C)(=O)=O)cc(N4CCOC[C@@H]4C)n3)ccc2[nH]1 [Example 12, (S)-1-(5-(4-(difluoro(methylsulfonyl)methyl)-6-(3-methylmorpholino)pyridin-2-yl)-1H-pyrrolo[3,2-b]pyridin-2-yl)-N-methylmethanamine] | 39.8 to 1000
CNCc1cc2nc(-c3cc(C4(S(C)(=O)=O)CCOCC4)cc(N4C5CCC4COC5)n3)ccc2[nH]1 [Example 40, ({5-[4-(4-methanesulfonyloxan-4-yl)-6-{3-oxa-8-azabicyclo[3.2.1]octan-8-yl}pyridin-2-yl]-1H-pyrrolo[3,2-b]pyridin-2-yl}methyl)(methyl)amine] | 39.8 to 1000
CNCc1cc2nc(-c3cc(C4(S(C)(=O)=O)CC4)cc(N4CCOC[C@@H]4C)n3)ccc2[nH]1 [Example 20, ({5-[4-(1-methanesulfonylcyclopropyl)-6-[(3S)-3-methylmorpholin-4-yl]pyridin-2-yl]-1H-pyrrolo[3,2-b]pyridin-2-yl}methyl)(methyl)amine] | 39.8 to 1000
CNCc1cc2nc(-c3cc(C(C)(C)S(C)(=O)=O)cc(N4C5CCCC4COC5)n3)ccc2[nH]1 [Example 5, 1-(5-(6-(3-oxa-9-azabicyclo[3.3.1]nonan-9-yl)-4-(2-(methylsulfonyl)propan-2-yl)pyridin-2-yl)-1H-pyrrolo[3,2-b]pyridin-2-yl)-N-methylmethanamine] | 39.8 to 1000
CC[C@H]1COCCN1c1cc(C2(S(C)(=O)=O)CCOCC2)cc(-c2ccc3[nH]c(CO)cc3n2)n1 [Example 33, (5-{6-[(3S)-3-ethylmorpholin-4-yl]-4-(4-methanesulfonyloxan-4-yl)pyridin-2-yl}-1H-pyrrolo[3,2-b]pyridin-2-yl)methanol] | 39.8 to 1000
CNCc1cc2nc(-c3cc(C(C)(C)S(C)(=O)=O)cc(N4CCOC[C@@H]4C)n3)ccc2[nH]1 [Example 2, (S)—N-methyl-1-(5-(6-(3-methylmorpholino)-4-(2-(methylsulfonyl)propan-2-yl)pyridin-2-yl)-1H-pyrrolo[3,2-b]pyridin-2-yl)methanamine] | 39.8 to 1000
CC[C@H]1COCCN1c1cc(CS(=O)(=O)C2CC2)cc(-c2ccc3[nH]c(CNC)cc3n2)n1 [Example 10, (S)-1-(5-(4-((cyclopropylsulfonyl)methyl)-6-(3-ethylmorpholino)pyridin-2-yl)-1H-pyrrolo[3,2-b]pyridin-2-yl)-N-methylmethanamine] | 39.8 to 1000
CC[C@H]1COCCN1c1cc(C2(S(C)(=O)=O)CCOCC2)cc(-c2ccc3[nH]c(CN)cc3n2)n1 [Example 23, 1-(5-{6-[(3S)-3-ethylmorpholin-4-yl]-4-(4-methanesulfonyloxan-4-yl)pyridin-2-yl}-1H-pyrrolo[3,2-b]pyridin-2-yl)methanamine] | 39.8 to 1000
CC[C@H]1COCCN1c1cc(CS(C)(=O)=O)cc(-c2ccc3[nH]c(CO)cc3n2)n1 [Example 34, (5-{6-[(3S)-3-ethylmorpholin-4-yl]-4-(methanesulfonylmethyl)pyridin-2-yl}-1H-pyrrolo[3,2-b]pyridin-2-yl)methanol] | 39.8 to 1000
CC[C@H]1COCCN1c1cc(C2(S(C)(=O)=O)CC2)cc(-c2ccc3[nH]c(CNC)cc3n2)n1 [Example 19, [(5-{6-[(3S)-3-ethylmorpholin-4-yl]-4-(1-methanesulfonylcyclopropyl)pyridin-2-yl}-1H-pyrrolo[3,2-b]pyridin-2-yl)methyl](methyl)amine] | 39.8 to 1000
CNCc1cc2nc(-c3cc(CS(C)(=O)=O)cc(N4CC5CCC(C4)O5)n3)ccc2[nH]1 [Example 25, ({5-[4-(methanesulfonylmethyl)-6-{8-oxa-3-azabicyclo[3.2.1]octan-3-yl}pyridin-2-yl]-1H-pyrrolo[3,2-b]pyridin-2-yl}methyl)(methyl)amine] | 39.8 to 1000
